Source: patent US20210283146A1, “COMPOSITION CONTAINING A 7BETA-HYDROXYCHOLESTEROL AND A LIPID VEHICLE, AND ITS USE IN THE TREATMENT OF NEOPLASTIC PATHOLOGIES” (priority 2018, published 2021)

Assays:
GBM = details: cited from earlier work
[1] = in vivo
Experimental: The GBM tumour was obtained by necropsy of a dog with glioblastoma, which was treated by the oral route with BIM2b PO and which lived with a good quality of life for 8 months. Necropsy was carried out 21 days after stopping the treatment with BIM2b PO. The tumour was fixed in formol mainly for histopathology analysis and a remaining fragment was analysed for quantification of BIM2b.
The fragments of dog brains, stored individually in cryotubes at +4° C. in a bath of formol, are dried on sopalin paper before they are weighed and put in the Potter. Just as for extraction of the mouse brains, each fragment was extracted after adding 4 ml of cold 0.74% KCl. The procedures for homogenization and extraction are the same as was described for the mouse brains in the Methods section.
Dry lipid extract of the dog GBM tumour fragment was thus obtained and was chromatographed sequentially on a SEP PAK Classic Silica cartridge; then on SEP PAK Plus C18 (with eluent A=5 mM of ammonium acetate/ultrapure water and B=5 mM of ammonium acetate/MetOH).
The compound BIM2b and its metabolites in the tumour are separated, detected and quantified by HPTLC as described in Section II) Methods.

beagle dogs [2] = experiment: Study of tolerance of BIM2b PO in healthy dogs
wild-type mice [3] = details: mouse, in vivo
Experimental: (§1) The composition from Example 2 was administered orally (by tube) to wild-type mice at a rate of 1.5 mg (50 μl of BIM2 PO) per animal, twice a day, 5 days out of 7 with a maximum duration of treatment of 21 days.
(§2) In the treated group, 2 mice were sacrificed after 18 days and 3 mice were sacrificed after 21 days. In the control group, 3 mice were sacrificed after 21 days.
(§3) The samples of internal organs (stomach, alimentary canal, liver, kidney, lung, heart) were immersed in 4% formaldehyde for 72 h and stored at 4° C., and then embedded in paraffin. The samples underwent macroscopic analysis before and after thinning.
(§4) Histological examination of the internal organs fixed with formaldehyde and toxicological quantifications were carried out on sections stained with haematoxylin-eosin-saffron according to a 4-level evaluation system complying with the nomenclature (3).
(§5) All the sections were examined for possible signs of cellular alteration, degeneration, necrosis, inflammation, fibrosis etc.

[4] = Analysis of BIM2b in the brains of mice treated per os with BIM2b PO (HPTLC); type: in vivo, mouse; details: for Compound BIM2b (μg/g of brain): healthy mice, BIM2b PO per os
Experimental: The mouse brains dried and stored invididually in cryotubes at […] in liquid nitrogen are left to return to ambient temperature. Each brain is weighed and put in the Potter; 4 ml of 0.74% of cold KCl is added and the rest of the procedure takes place on a bed of ice. Each brain is ground 6 times at 1000 rev/min, each cycle comprising 5 minutes of grinding and 5 minutes of rest. The oxysterols are extracted according to the Folch procedure described above (II.3.). The lipid residue is then subjected to adsorption chromatography on a silica column.
The silica (8 g) is prepared in 40 ml of the hexane:ether mixture (diethyl-oxide (3:7, v/v) and then poured into the appropriate columns. The height of the silica bed is 18 cm and its volume is 15 ml.
A suitable quantity of mouse brain extract is dissolved in 1 ml of the first eluent system and deposited on the silica bed. Elution takes place in 4 steps in order to concentrate the fractions containing the oxysterols and remove as far as possible the lipids contaminating the mouse brain, in particular cholesterol.
The groups of fractions are evaporated to dryness, dissolved in acetone and the appropriate volumes are subjected to HPTLC chromatography.
The treatment of the healthy mice per os with BIM2b PO and the provenance of the brains are described in Example 4.
The compound BIM2b and its metabolites in the brains were separated, detected and quantified by HPTLC as described in the Methods section.

beagle dogs [5] = details: dog, in vivo
spontaneous gliomas = experiment: Anti-GBM efficacy of BIM2b PO by the oral route in dogs with spontaneous gliomas; type: in vivo; details: oral treatment; mean survival of a dog with GBM 2-3 months
Experimental: 9 dogs with spontaneous gliomas diagnosed by imagery were included in the study.
The condition and the tumour volume are evaluated by MRI.
On day D0 (1st administration), the GBM dog subject is examined clinically and a blood sample is collected for analysis of the biochemical parameters. On D15, an electrocardiogram is recorded and a blood sample is taken.
Electrocardiograms, blood samples and MRI are carried out on D42, D63, D84 and D105, then 3 months and 6 months after stopping the treatment.
The tumour response is evaluated by MRI based on the RECIST criteria (Response Evaluation Criteria in Solid Tumours). These criteria define the tumoral response as follows: • progression is an increase in size of the largest axis of the tumour of more than 20% relative to the preceding MRI; • regression is defined by a decrease in the size of the largest axis of the tumour of more than 30% relative to the preceding MRI; • stability is defined by a change in the size of the tumour between a decrease of less than 30% and an increase of less than 20%.

wild-type mice [6] = experiment: Investigation of toxicity of BIM2b PO in healthy mice
Experimental: as §1, §2, §3, §4, §5

Molecule: N.N.[Cl][Pt][Cl] [cisplatin]
- median survival for patients with GBM (GBM): do not improve the median survival

Molecule: CC(=O)O[C@H]1C=C2CC(OC(=O)C3COC(C)(C)O3)CC[C@]2(C)C2CC[C@@]3(C)C(CCC3[C@H](C)CCCC(C)C)C21 (stereo in doubt) [BIM2b, 7-acetoxy-10,13-dimethyl-17-(6-methylheptan-2-yl)-2,3,4,7,8,9,10,11,12,13,14,15,16,17-tetradecahydro-1H-cyclopenta[a]phenanthren-3-yl 2,2-dimethyl-1,3-dioxolane-4-carboxylate]
- crossing of the BTB ([1]; dog): crosses the BTB
- percentage by weight of BIM2b found in the whole tumour relative to the total quantity ingested ([1]; dog): 0.39%
- ratio of percentage in dog tumour to percentage in brains of healthy mice ([1]; 21 days after stopping the treatment): 30 times
- hepatic or renal toxicity (beagle dogs [2]): did not demonstrate hepatic or renal toxicity
- toxicity (conclusion) (beagle dogs [2]; administered as BIM2b PO): does not lead to any toxicity
- hepatic or renal toxicity (biological parameters) (wild-type mice [3]): did not demonstrate hepatic or renal toxicity
- Compound BIM2b (μg/g of brain) ([4]; Day D2): 12.5 μg/g of brain
- Compound BIM2b (μg/g of brain) ([4]; Day D4): 7.1 μg/g of brain
- Compound BIM2b (μg/g of brain) ([4]; Day D18): 11.7 μg/g of brain
- Compound BIM2b (μg/g of brain) ([4]; Day D22 (treatment stopped on D20)): 1.0 μg/g of brain
- percentage of BIM2b found in the brains relative to the total quantity ingested ([4]; on D18): 0.013%
- drop in the content of BIM2b in the mouse brain ([4]; on D22, after stopping of the treatment on D20): 91.5%
- crossing of the blood-brain barrier (BBB) ([4]; treated healthy mice, oral): crosses the blood-brain barrier (BBB)
- undesirable clinical effects (beagle dogs [5]): did not cause undesirable clinical effects
- survival of the GBM dog subject whose tumour was analysed (spontaneous gliomas): 8 months
- toxicity (conclusion) (wild-type mice [6]; oral): does not entrain any toxicity
- undesirable clinical effects (wild-type mice [6]; twice a day, 5 times a week): did not give rise to undesirable clinical effects

Molecule: bleomycin
- median survival for patients with GBM (GBM): do not improve the median survival

Molecule: CN(C)C/C=C/C(=O)Nc1cc2c(Nc3ccc(F)c(Cl)c3)ncnc2cc1O[C@H]1CCOC1 [afatinib dimaleate]
- median survival for patients with GBM (GBM): do not improve the median survival

Molecule: O=P1(N(CCCl)CCCl)NCCCO1 (stereo not drawn) [cyclophosphamide]
- median survival for patients with GBM (GBM): do not improve the median survival
